Data as given in patent US8323706B2, “Antiestrogenic glyceollins suppress human breast and ovarian carcinoma proliferation and tumorigenesis” (The United States of America, as represented by the …, priority 2005, dated 2012).

Key:
[1] = test system: MCF-7 breast carcinoma cell; assay: In vitro MCF-7 colony (clonogenicity) assay; assay type: cell-based, human; conditions: estrogen treatment alone
Description: The MCF-7N cell variant is a subclone of MCF-7 cells from the American Type Culture Collection (Manassas, Va.) that was generously provided by Louise Nutter (University of Minnesota, Minneapolis, Minn.) and has been previously described (Graham et al., supra). The BG-1 cell line has been previously described. MCF-7 and BG-1 cells were grown in Dulbecco's modified minimal medium (pH 7.4; Life Technologies, Inc., Grand Island, N.Y.) supplemented with 10% fetal bovine serum (Hyclone, Salt Lake City, Utah). For studies with estrogen, the cells were cultured in medium supplemented with 5% charcoal-stripped fetal bovine serum. The cells were incubated at 37° C. in an atmosphere of 5% CO2 and air.
MCF-7 cells are plated at 10^3/well in 6 well Cluster dishes, and incubated overnight. Cells are cultured and treated in DMEM without phenol red; phenol red interacts with estrogen receptors. Treatment and control plates were incubated at 37° C., 5% CO2. Plates were observed periodically. When colonies were of a size of 50 cells or more, at Day 14, cells were fixed with glutaraldehyde for 30 min at 37° C., washed, and stained with Crystal violet (0.4%) for 1 hr. Colonies were counted manually. This method is used to study the effects of chemical or physical agents on cell survival and proliferation; 1 colony=1 cell. […]

[2] = test system: MCF-7 breast carcinoma cells; assay: MCF-7 xenograft tumor growth in ovariectomized nu/nu mice; assay type: in vivo; conditions: estradiol pellet alone; day 20; mean±SEM
Description: (§1) Cages, bedding, food, and water were autoclaved before use. […] Tumor size was measured every two days using calipers.
(§2) The in vivo effects of glyceollins on tumor growth formation were determined. MCF-7 or BG-1 cells were implanted into the mammary fat pad of female ovariectomized nude mice. Mice were divided into two groups: those animals implanted s.c. with estradiol pellets and those without. Tumors were implanted using Matrigel (reduced factor) to enhance tumor incidence and promote tumor growth in the presence and absence of estrogen. Glyceollins (or vehicle) were injected daily for 20 days. Measurable tumors were observed on Day 8 for both MCF-7 cells (FIG. 3) and BG-1 cells (FIG. 4). […] Estrogen stimulated the formation of rapidly growing tumors in both MCF-7 and BG-1 implanted mice, reaching a maximal size of 3074±843 mm^3 in MCF-7 and 3836±756 mm^3 in BG-1 implanted animals by day 20 of treatment. In the negative control animals (without estrogen pellets or glyceollins), tumor incidence occurred on […] and tumors grew slowly with a maximal size of 899±24 mm^3 for MCF-7 cells and 976±42 mm^3 for BG-1 cells on day 20 of treatment. […]
(§3) Data Analysis: Data for MCF-7N and BG-1 tumor size were analyzed separately using repeated measures two-way ANOVA with treatment and time as independent factors (SigmaStat 3.1). […]

[3] = test system: BG-1 ovarian carcinoma cells; assay: BG-1 xenograft tumor growth in ovariectomized nu/nu mice; assay type: in vivo; conditions: estradiol pellet alone; day 20; mean±SEM
Description: as §1, §2, §3

[4] = test system: progesterone receptor (PR); assay: Progesterone receptor immunohistochemistry in MCF-7 tumor explants; assay type: in vivo, mice; conditions: treatment alone vs control; MCF-7 tumors
From the text: (§4) Tumor explants were resected at necropsy, fixed in 70% ethanol, embedded in paraffin, and immunostained using a primary monoclonal antibody for human progesterone receptor (PR) (NCL-PGR, Novocastra, Newcastle-upon-Tyne, UK). Staining methods included antigen-retrieval with citrate buffer (pH 6.0), biotinylated rabbit anti-mouse Fc antibody as a linking reagent, alkaline phosphatase-conjugated streptavidin as the label, and Vector Red as the chromogen (Vector Laboratories, Burlingame, Calif.). Cell staining was quantified by a computer-assisted counting technique, using a grid filter to select cells for counting (Darvill et al., supra; Burow et al., supra). At least two microscopic fields were randomly selected for each tumor and 200 cells were counted at 40× magnification. Numbers of positively stained cells were expressed as a percentage of the total number examined. All measurements were made blinded to treatment group.
(§5) Progesterone receptor expression is an estrogen-sensitive marker driven by ER transactivation. In this study we used PR immunostaining to evaluate (a) whether glyceollin treatment alone was stimulating the ER as an agonist and (b) whether glyceollin treatment with estradiol (E2) was antagonizing ER activation.

[5] = test system: progesterone receptor (PR); assay: Progesterone receptor immunohistochemistry in BG1 tumor explants; assay type: in vivo, mice; conditions: treatment alone vs control; BG1 tumors
From the text: as §4, §5

[6] = test system: Mouse uteri; assay: Uterine weight and morphology (uterotrophic assay) in nu/nu mice

SMILES	colony formation [1]	tumor size (maximal) [2] [mm^3]	tumor size (maximal) [3] [mm^3]	PR expression [4]	PR expression [5]	uterine histology ([6]; H&E-stained uteri, treatment alone)	Uterine area, uterine diameter, and epithelial height ([6]; treatment alone vs control)	uterine fixed weight over control ([6]; treatment alone, 20 days)
C[C@]12CC[C@@H]3c4ccc(O)cc4CC[C@H]3[C@@H]1CC[C@@H]2O [Glyceollin E2, 17β-estradiol]	enhanced colony formation	3074±843	3836±756	significantly increased PR expression	significantly increased PR expression	markedly larger with epithelial pseudostratification, stromal edema and hyperplasia, and increased numbers of endometrial glands	significantly increased	
CC/C(=C(\c1ccccc1)c1ccc(OCCN(C)C)cc1)c1ccccc1 [tamoxifen]								increase uterine fixed weight over control
